Drawing on US8134015B2, “Compound inhibiting in vivo phosphorous transport and medicine containing the same” (Kyowa Hakko Kirin Co., Ltd., priority 2003, dated 2012), this text covers IC50 and inhibition for 27 compounds.

Structures are written as SMILES. pIC50: −log10 of the molar value. Counter-ions that a name gives are not always drawn. Where only a bound is given, the exact number is not on record here.

The pIC50 is the negative decadic logarithm of the IC50, by convention in mol/L. In general, inhibition refers to the change of the read-out against control, counted positive when it falls. Read a low inhibition as little suppression.

One assay concerns the target T1, rat NaPi-2b (Rattus norvegicus, UniProt Q9JJ09).
T1 construct: expressed in transfected cells; host or cells: Xenopus oocytes injected with cRNA
T1 sequence (Q9JJ09 1-695): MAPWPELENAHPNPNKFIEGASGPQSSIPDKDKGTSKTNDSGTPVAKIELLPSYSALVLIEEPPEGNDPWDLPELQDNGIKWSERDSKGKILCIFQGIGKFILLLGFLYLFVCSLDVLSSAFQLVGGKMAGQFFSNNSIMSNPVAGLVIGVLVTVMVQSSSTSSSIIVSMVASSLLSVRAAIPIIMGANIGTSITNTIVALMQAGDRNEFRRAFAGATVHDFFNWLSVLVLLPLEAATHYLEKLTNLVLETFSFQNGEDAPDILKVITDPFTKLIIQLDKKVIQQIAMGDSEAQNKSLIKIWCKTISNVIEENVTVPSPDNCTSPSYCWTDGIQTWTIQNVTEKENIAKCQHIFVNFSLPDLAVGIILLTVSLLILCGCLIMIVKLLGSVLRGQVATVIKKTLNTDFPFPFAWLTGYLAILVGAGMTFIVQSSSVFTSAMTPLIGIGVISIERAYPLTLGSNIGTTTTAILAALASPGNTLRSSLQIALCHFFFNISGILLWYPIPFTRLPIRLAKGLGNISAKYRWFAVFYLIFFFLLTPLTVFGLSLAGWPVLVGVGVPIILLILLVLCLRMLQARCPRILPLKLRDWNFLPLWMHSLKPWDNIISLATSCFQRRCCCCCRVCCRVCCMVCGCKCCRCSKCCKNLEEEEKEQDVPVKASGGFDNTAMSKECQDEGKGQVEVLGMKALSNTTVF
The assay can be described thus: Sodium-dependent phosphate uptake of Xenopus oocytes which expressed NaPi-2b (32P). Conditions: Xenopus oocytes expressing rat NaPi-2b, 32P radioactive phosphorus; read-out: IC50 (phosphate uptake inhibitory activity). It counts as cell-based. An outline of the steps:
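Rat small-intestine NaPi-2b cRNA injected into Xenopus oocytes, expressed for 2 days. Sodium-dependent phosphate uptake measured with 32P; % inhibition at 300 and 100 μM taken from the same inhibition curve.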
With `CN(C)CCn1nnnc1SCc1cccc(C(=O)Nc2ccc(Cl)cc2C(=O)N/N=C/c2cccc(O)c2)c1` [Compound 470, N-[4-Chloro-2-(3-hydroxy-benzylidene-hydrazinocarbonyl)-phenyl]-3-[1-(2-dimethylamino-ethyl)-1H-tetrazol-5-ylsulfanylmethyl]-benzamide], the pIC50 is 4.63. Same read-out and setting: as for `CCN(CC)CCN(C)Cc1cccc(C(=O)Nc2c(C)csc2C(=O)N/N=C/c2ccc(Cl)c(C(F)(F)F)c2)c1` [Compound 344, N-[2-(4-Chloro-3-trifluoromethyl-benzylidene-hydrazinocarbonyl)-4-methyl-thiophen-3-yl]-3-{[(2-diethylamino-ethyl)-methyl-amino]-methyl}-benzamide], the figure is 4.51. As to `Cc1cccc(/C=N/NC(=O)c2cc(Br)ccc2NC(=O)c2ccco2)c1` [Compound 153, Furan-2-carboxylic acid [4-bromo-2-(3-methyl-benzylidene-hydrazinocarbonyl)-phenyl]-amide], the pIC50 is 5.46. Consider `O=c1c2cc(Br)ccc2nc(-c2cccc(CSCCO)c2)n1/N=C/c1ccc(F)cc1` [Compound 695, 6-Bromo-3-[(4-fluoro-benzylidene-)-amino]-2-[3-(2-hydroxy-ethylsulfanylmethyl)-phenyl]-3H-quinazolin-4-one], for which the pIC50 was 5.17.

In the case of `O=C(Nc1ccc(I)cc1C(=O)N/N=C/c1ccc(F)cc1)c1cccc(CN2CCC(N3CCCCC3)CC2)c1` [Compound 483, 3-[1,4′]Bipiperidinyl-1′-ylmethyl-N-[2-(4-fluoro-benzylidene-hydrazinocarbonyl)-4-iodo-phenyl]-benzamide], the pIC50 was more than 5.52.

Consider `Cc1ccc(/C=N/NC(=O)c2c(NC(=O)c3cccc(CN4CCN(CCO)CC4)c3)sc3c2CCCC3)cc1` [Compound 622, 3-[4-(2-Hydroxy-ethyl)-piperazin-1-ylmethyl]-N-[3-(4-methyl-benzylidene-hydrazinocarbonyl)-4,5,6,7-tetrahydro-benzo-[b]thiophen-2-yl]-benzamide], for which the pIC50 is more than 5.52. With `Cc1csc(NC(=O)c2cccc(CN3CCC(CO)CC3)c2)c1C(=O)N/N=C/c1cccc(F)c1` [Compound 602, N-[3-(3-Fluoro-benzylidene-hydrazinocarbonyl)-4-methyl-thiophen-2-yl]-3-(4-hydroxymethyl-piperidin-1-ylmethyl)-benzamide], the pIC50 was 5.40. For `COc1ccc(/C=N/NC(=O)c2cc(Br)ccc2NC(=O)c2ccc(CN3CCC(O)CC3)cc2)cc1` [Compound 330, N-[4-Bromo-2-(4-methoxy-benzylidene-hydrazinocarbonyl)-phenyl]-4-(4-hydroxy-piperidin-1-ylmethyl)-benzamide], the pIC50 was 4.97. For `Cc1ccc(/C=N/NC(=O)c2ccccc2NC(=O)c2ccccc2F)cc1` [Compound 40, 2-Fluoro-N-[2-(4-methyl-benzylidene-hydrazinocarbonyl)-phenyl]-benzamide], the pIC50 was 5.69.

With `O=C(Nc1ccc(N2CCN(CCO)CC2)cc1C(=O)N/N=C/c1ccc(Cl)c(C(F)(F)F)c1)c1cccc(CSCCO)c1` [Compound 923, N-{2-(4-Chloro-3-trifluoromethyl-benzylidene-hydrazinocarbonyl)-4-[4-(2-hydroxy-ethyl)-piperazin-1-yl]-phenyl}-3-(2-hydroxy-ethylsulfanylmethyl)-benzamide], the negative-log IC50 (pIC50) is 4.73. For `Cc1ccc(/C=N/NC(=O)c2cc(Cl)ccc2NC(=O)c2ccncc2)cc1` [Compound 192, N-[4-Chloro-2-(4-methyl-benzylidene-hydrazinocarbonyl)-phenyl]-isonicotinamide], the pIC50 is 4.64. For `O=C(Nc1ccc(I)cc1C(=O)N/N=C/c1cccc(F)c1)c1cccc(CN2CCC(N3CCCCC3)CC2)c1` [Compound 482, 3-[1,4′]Bipiperidinyl-1′-ylmethyl-N-[2-(3-fluoro-benzylidene-hydrazinocarbonyl)-4-iodo-phenyl]-benzamide], the pIC50 is more than 5.52. As for `COc1ccc(C(=O)Nc2ccccc2C(=O)N/N=C/c2cccc(O)c2)cc1` [Compound 50, N-[2-(3-Hydroxy-benzylidene-hydrazinocarbonyl)-phenyl]-4-methoxy-benzamide], the pIC50 was 4.71. On the same count and under the same terms, as for `O=C(Nc1sc2c(c1C(=O)N/N=C/c1cccc(F)c1)CCCC2)c1cccc(CSCCCO)c1` [Compound 607, N-[3-(3-Fluoro-benzylidene-hydrazinocarbonyl)-4,5,6,7-tetrahydro-benzo[b]thiophen-2-yl]-3-(3-hydroxy-propylsulfanylmethyl)-benzamide], the figure is 6.37; as for `O=C(Nc1ccccc1C(=O)N/N=C/c1ccc(O)cc1)c1cccc(F)c1` [Compound 86, 3-Fluoro-N-[2-(4-hydroxy-benzylidene-hydrazinocarbonyl)-phenyl]-benzamide], 4.94.

For `CCN(CC)CCN(C)Cc1cccc(C(=O)Nc2ccc(Cl)cc2C(=O)N/N=C/c2ccc(C)c(C)c2)c1` [Compound 383, N-[4-Chloro-2-(3,4-dimethyl-benzylidene-hydrazinocarbonyl)-phenyl]-3-{[(2-diethylamino-ethyl)-methyl-amino]-methyl}-benzamide], the pIC50 was 5.70. On to `COc1ccc(C(=O)Nc2ccc(Cl)cc2C(=O)N/N=C/c2cccc(F)c2)cc1OC` [Compound 65, N-[4-Chloro-2-(3-fluoro-benzylidene-hydrazinocarbonyl)-phenyl]-3,4-dimethoxy-benzamide], for which the pIC50 was 5.89.

As to `CCN(CC)CCN(CCN(CC)CC)Cc1cccc(C(=O)Nc2sc3c(c2C(=O)N/N=C/c2ccc(Cl)c(C(F)(F)F)c2)CCCC3)c1` [Compound 855, 3-{[Bis-(2-diethylamino-ethyl)-amino]-methyl}-N-[3-(4-chloro-3-trifluoromethyl-benzylidene-hydrazinocarbonyl)-4,5,6,7-tetrahydro-benzo[b]thiophen-2-yl]-benzamide; hydrochloride], the pIC50 is 5.76. With `Cc1ccc(/C=N/NC(=O)c2cc(Br)ccc2NC(=O)c2cccnc2)cc1C` [Compound 176, N-[4-Bromo-2-(3,4-dimethyl-benzylidene-hydrazinocarbonyl)-phenyl]-nicotinamide], the pIC50 was 5.39. Regarding `O=C(Nc1ccc(N2CCSCC2)cc1C(=O)N/N=C/c1ccc(Cl)c(C(F)(F)F)c1)c1cccc(CSCCO)c1` [Compound 927, N-[2-(4-Chloro-3-trifluoromethyl-benzylidene-hydrazinocarbonyl)-4-thiomorpholin-4-yl-phenyl]-3-(2-hydroxy-ethylsulfanylmethyl)-benzamide], the pIC50 was more than 6.00. `Cc1csc(NC(=O)c2cccc(CSc3nc[nH]n3)c2)c1C(=O)N/N=C/c1ccc(F)cc1` [Compound 553, N-[3-(4-Fluoro-benzylidene-hydrazinocarbonyl)-4-methyl-thiophen-2-yl]-3-(1H-[1,2,4]triazol-3-ylsulfanylmethyl)-benzamide]: the pIC50 is 5.55. Consider `CN(CCO)Cc1ccc(C(=O)Nc2ccc(Cl)cc2C(=O)N/N=C/c2cccc(O)c2)cc1` [Compound 420, N-[4-Chloro-2-(3-hydroxy-benzylidene-hydrazinocarbonyl)-phenyl]-4-{[(2-hydroxy-ethyl)-methyl-amino]-methyl}-benzamide], for which the pIC50 was 4.57. Same read-out and setting: as for `Cc1ccc(/C=N/NC(=O)c2cc(I)ccc2NC(=O)c2cccc(CN3CCC(N4CCCCC4)CC3)c2)cc1` [Compound 485, 3-[1,4′]Bipiperidinyl-1′-ylmethyl-N-[4-iodo-2-(4-methyl-benzylidene-hydrazinocarbonyl)-phenyl]-benzamide], the figure is more than 5.52. Still for that read-out and setting: as for `CCN(CC)CCSCc1cccc(C(=O)Nc2ccc(N3CCCCC3)cc2C(=O)N/N=C/c2ccc(F)cc2)c1` [Compound 877, 3-(2-Diethylamino-ethylsulfanylmethyl)-N-[2-(4-fluoro-benzylidene-hydrazinocarbonyl)-4-piperidin-1-yl-phenyl]-benzamide], the figure is more than 6.52. With `O=C(Nc1ccc(Cl)cc1C(=O)N/N=C/c1cccc(F)c1)c1cccc(CN2CCC(N3CCCCC3)CC2)c1` [Compound 368, 3-[1,4′]Bipiperidinyl-1′-ylmethyl-N-[4-chloro-2-(3-fluoro-benzylidene-hydrazinocarbonyl)-phenyl]-benzamide], the pIC50 is 5.86.

Turning to `COc1ccc(C(=O)Nc2ccc(OCCN(C)C)cc2C(=O)N/N=C/c2ccc(F)cc2)cc1OC` [Compound 139, N-[4-(2-Dimethylamino-ethoxy-)-2-(4-fluoro-benzylidene-hydrazinocarbonyl)-phenyl]-3,4-dimethoxy-benzamide], the pIC50 is 4.26.

Still in this assay, the particulars now being: phosphate uptake, oocytes expressing rat NaPi-2b; 300 μM, determined from inhibition curve.
On to `O=C(Nc1ccc(Cl)cc1C(=O)N/N=C/c1ccc(F)cc1)c1cccc(CSCCS(=O)(=O)O)c1` [Compound 708, 2-{3-[4-Chloro-2-(4-fluoro-benzylidene-hydrazinocarbonyl)-phenylcarbamoyl]-benzylsulfanyl}-ethanesulfonic acid], for which the inhibition at 300 µM was determined as 42%.
